Reference: patent US8293773B2, “1, 2, 3-triazole derivatives as new cannabinoid-1 receptor antagonists” (National Tsing Hua University, priority 2008, dated 2012)

What follows are compounds tested against T1, human CB1 receptor (Homo sapiens, UniProt P21554) (assay: competitive radioligand binding assay, displacement of [3H]CP55,940, CB1). Conditions: Table 1; percent inhibition at 10 μM.
T1 construct: expressed in transfected cells; membrane-enriched fractions
T1 sequence (P21554 whole entry): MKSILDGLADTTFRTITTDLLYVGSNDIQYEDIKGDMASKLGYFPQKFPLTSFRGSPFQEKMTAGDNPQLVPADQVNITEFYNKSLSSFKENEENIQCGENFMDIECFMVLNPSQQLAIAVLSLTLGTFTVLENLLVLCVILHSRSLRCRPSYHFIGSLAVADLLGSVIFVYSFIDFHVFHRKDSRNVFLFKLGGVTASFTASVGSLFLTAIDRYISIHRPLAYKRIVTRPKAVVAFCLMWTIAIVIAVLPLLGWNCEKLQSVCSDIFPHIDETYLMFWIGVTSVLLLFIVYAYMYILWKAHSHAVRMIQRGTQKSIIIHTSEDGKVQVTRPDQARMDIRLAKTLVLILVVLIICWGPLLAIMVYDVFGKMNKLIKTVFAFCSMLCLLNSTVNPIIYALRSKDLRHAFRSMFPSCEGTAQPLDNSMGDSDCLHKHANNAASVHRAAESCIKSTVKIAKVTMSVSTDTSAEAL
Method: In addition, the affinity of test compounds of this invention toward CB1 and CB2 receptors was determined by competitive radioligand binding assays in vitro. This method differentiates the binding strength between compounds by their abilities in displacing a receptor-specific radioactive ligand. […] The readings of the radioactivity retained allow further analysis of receptor binding, and assist in predictions of the pharmacological activities of the test compounds.
In the assays, CB1 receptors are from human CB1 stably expressed cell lines, and CB2 receptors are from human CB2 stably expressed cell lines. For purification of membrane-enriched fractions, cells were scraped off from the culture dishes in ice-cold buffer A (50 mM Tris, 5 mM MgCl2, 2.5 mM EDTA, pH 7.4, 10% sucrose) with 1 mM PMSF. After sonication, the membrane-enriched fractions were centrifuged for 15 minutes at 2,000×g at 4° C. The supernatant was centrifuged again for 30 minutes at 43,000×g at 4° C. The final pellet was re-suspended in buffer A and stored at −80° C. The protein concentration of the purified membrane was determined by the Bradford method as described by the manual provided by Bio-Rad Laboratories, Inc., Hercules, Calif.
During the receptor binding experiments, 0.2˜8 μg of membrane fractions were incubated with 0.75 nM [^3H]CP55,940 and a test compound in the incubation buffer of 50 mM Tris-HCl, 5 mM MgCl2, 1 mM EDTA, 0.3% BSA, pH 7.4. The non-specific binding was determined by using 1 μM of CP55,940. The mixture was incubated for 1.5 hours at 30° C. in Multiscreen microplates (Millipore, Billerica, Mass.). At the completion of the incubation, the reaction was terminated by Manifold filtration and washed with ice-cold wash buffer (50 mM Tris, pH 7.4, 0.25% BSA) four times. The radioactivity bound to the filters was measured by Topcount (Perkin Elmer Inc.).
Compound `C=CCNC(=O)Cn1nnc(-c2ccccc2)c1-c1ccccc1` [Compound 7] has an inhibition at 10 µM of 15.4%.
For `CCCCOC(=O)Cn1nnc(-c2ccc(F)c(Cl)c2)c1-c1ccc(F)c(Cl)c1` [Compound 21], the inhibition at 10 µM was 15.7%.
`CCCCOC(=O)Cn1nnc(-c2ccc(Cl)c(Cl)c2)c1-c1ccc(Cl)c(Cl)c1` [Compound 6] gave an inhibition at 10 µM of 50.5%.
In the case of `CCCCOC(=O)Cn1nnc(-c2ccccc2)c1-c1ccc(C)cc1` [Compound 37], the inhibition at 10 µM is reported as 26.5%.
For `O=C(Cn1nnc(-c2ccccc2)c1-c1ccccc1F)N1CCCCC1` [Compound 52], the inhibition at 10 µM was 11%.
Work on `CCC(CC)OC(=O)Cn1nnc(-c2ccc(Cl)cc2)c1-c1ccc(Cl)cc1` [Compound 33] yielded an inhibition at 10 µM of 24.6%.
`CCCCOC(=O)Cn1nnc(-c2cc(Cl)cc(Cl)c2)c1-c1cc(Cl)cc(Cl)c1` [Compound 23] was tested, and the inhibition at 10 µM was 29.9%.
`O=C(Cn1nnc(-c2cccc(Cl)c2)c1-c1cccc(Cl)c1)N1CCCCC1` [Compound 11] gave an inhibition at 10 µM of 20.4%.
`CCCCOC(=O)Cn1nnc(-c2ccc(Br)cc2)c1-c1ccc(Br)cc1` [Compound 53] showed an inhibition at 10 µM of 68.7%.
`CCCCCCNC(=O)NNC(=O)Cn1nnc(-c2ccc(Cl)cc2)c1-c1ccc(Cl)cc1` [Compound 45] showed an inhibition at 10 µM of 9.8%.
For `CCCCOC(=O)Cn1nnc(-c2ccccc2)c1-c1ccsc1` [Compound 42], the inhibition at 10 µM was 35.6%.
`CCCOC(=O)Cn1nnc(-c2ccc(Cl)cc2)c1-c1ccc(Cl)cc1` [Compound 32] gave an inhibition at 10 µM of 28.3%.
`CCCCOC(=O)Cn1nnc(-c2cccc(Br)c2)c1-c1cccc(Br)c1` [Compound 62] gave an inhibition at 10 µM of 18.3%.
For `CCCCCNC(=O)NNC(=O)Cn1nnc(-c2ccc(Cl)cc2)c1-c1ccc(Cl)cc1` [Compound 51], the inhibition at 10 µM was 18.6%.
`O=C(Cn1nnc(-c2ccc(F)c(Cl)c2)c1-c1ccc(F)c(Cl)c1)N1CCCCC1` [Compound 12] was tested, and the inhibition at 10 µM was 30.7%.
`CCCCCCOC(=O)Cn1nnc(-c2ccc(Cl)cc2Cl)c1-c1ccc(Cl)cc1Cl` [Compound 57] was tested, and the inhibition at 10 µM was 55.7%.
Compound `CCCCCOC(=O)Cn1nnc(-c2ccc(Cl)cc2)c1-c1ccc(Cl)cc1` [Compound 20] has an inhibition at 10 µM of 51.2%.
`CCCCOC(=O)Cn1nnc(-c2ccc(OC)cc2)c1-c1ccccc1` [Compound 30] showed an inhibition at 10 µM of 40%.
`O=C(Cn1nnc(-c2ccc(Cl)cc2Cl)c1-c1ccc(Cl)cc1Cl)N1CCCCC1` [Compound 60] gave an inhibition at 10 µM of 55.7%.
With `CCCCOC(=O)Cn1nnc(-c2ccccc2)c1-c1ccc(C(=O)OC)cc1` [Compound 29] the inhibition at 10 µM was 31.9%.
`CCCCCOC(=O)Cn1nnc(-c2ccc(Cl)cc2Cl)c1-c1ccc(Cl)cc1Cl` [Compound 58] gave an inhibition at 10 µM of 58.3%.
Compound `CC(C)(C)OC(=O)NNC(=O)Cn1nnc(-c2ccccc2)c1-c1ccccc1` [Compound 44] has an inhibition at 10 µM of 14.1%.
For `O=C(CCn1nnc(-c2ccccc2)c1-c1ccccc1)N1CCCCC1` [Compound 43], the inhibition at 10 µM was 34.4%.
`CCCCOC(=O)CCn1nnc(-c2ccccc2)c1-c1ccccc1` [Compound 24] was tested, and the inhibition at 10 µM was 31.6%.
With `CCCCOC(=O)Cn1nnc(-c2ccc(C(F)(F)F)cc2)c1-c1ccc(C(F)(F)F)cc1` [Compound 35] the inhibition at 10 µM was 46%.
`CCCCOC(=O)Cn1nnc(-c2ccc(C(=O)OC)cc2)c1-c1ccc(C(=O)OC)cc1` [Compound 61] gave an inhibition at 10 µM of 46.1%.
`CCCCOC(=O)Cn1nnc(-c2ccc(OC)cc2)c1-c1ccc(OC)cc1` [Compound 34] gave an inhibition at 10 µM of 45.9%.
In the case of `CCCCCCCCOC(=O)Cn1nnc(-c2ccc(Cl)cc2)c1-c1ccc(Cl)cc1` [Compound 26], the inhibition at 10 µM is reported as 51.2%.

Same assay, conditions: Table 2; percent inhibition at 10 μM
`O=C(c1ccccc1)n1nc(-c2ccc(Cl)cc2)c(-c2ccc(Cl)cc2)n1` [Compound 70] gave an inhibition at 10 µM of 16.2%.
`CCCCCCCCNC(=O)n1nc(-c2ccc(Cl)cc2Cl)c(-c2ccc(Cl)cc2Cl)n1` [Compound 77] was tested, and the inhibition at 10 µM was 27.5%.
With `CCCCOC(=O)CNC(=O)n1nc(-c2ccc(Cl)cc2)c(-c2ccc(Cl)cc2)n1` [Compound 109] the inhibition at 10 µM was 58.1%.
With `CC(C)[C@H](NC(=O)Cn1nc(-c2ccc(Cl)cc2)c(-c2ccc(Cl)cc2Cl)n1)C(O)(c1ccccc1)c1ccccc1` [Compound 144] the inhibition at 10 µM was 89.5%.
For `O=C(NCCc1ccccc1)n1nc(-c2ccc(Cl)cc2)c(-c2ccc(Cl)cc2Cl)n1` [Compound 103], the inhibition at 10 µM was 23.4%.
`COc1ccc(NC(=O)n2nc(-c3ccc(Cl)cc3)c(-c3ccc(Cl)cc3)n2)cc1` [Compound 69] was tested, and the inhibition at 10 µM was 9.9%.
`CCCCCCCOC(=O)Cn1nc(-c2ccc(Cl)cc2Cl)c(-c2ccc(Cl)cc2Cl)n1` [Compound 117] showed an inhibition at 10 µM of 47.5%.
In the case of `O=C(Cn1nc(-c2ccc(Cl)cc2Cl)c(-c2ccc(Cl)cc2Cl)n1)N[C@H](CO)Cc1ccccc1` [Compound 132], the inhibition at 10 µM is reported as 88.2%.
Work on `COc1ccc(CNC(=O)Cn2nc(-c3ccc(Cl)cc3)c(-c3ccc(Cl)cc3Cl)n2)cc1OC` [Compound 164] yielded an inhibition at 10 µM of 82.1%.
For `O=C(NC12CC3CC(CC(C3)C1)C2)n1nc(-c2ccccc2)c(-c2ccccc2)n1` [Compound 106], the inhibition at 10 µM was 4.8%.
Work on `C[C@H](NC(=O)Cn1nc(-c2ccc(Cl)cc2Cl)c(-c2ccc(Cl)cc2Cl)n1)C(O)(c1ccccc1)c1ccccc1` [Compound 133] yielded an inhibition at 10 µM of 75.7%.
Compound `CCCCC(=O)n1nc(-c2ccc(Cl)cc2)c(-c2ccc(Cl)cc2)n1` [Compound 83] has an inhibition at 10 µM of 11.8%.
With `O=C(Cn1nc(-c2ccc(Cl)cc2)c(-c2ccc(Cl)cc2Cl)n1)N1CCCCC1` [Compound 129] the inhibition at 10 µM was 76.5%.
Compound `CSc1ccc([C@@H](O)[C@@H](CO)NC(=O)Cn2nc(-c3ccc(Cl)cc3Cl)c(-c3ccc(Cl)cc3Cl)n2)cc1` [Compound 136] has an inhibition at 10 µM of 66.3%.
`O=C(NCc1ccccc1)n1nc(-c2ccc(Cl)cc2)c(-c2ccc(Cl)cc2Cl)n1` [Compound 105] gave an inhibition at 10 µM of 18.6%.
In the case of `O=C(NCCc1ccccc1)n1nc(-c2ccc(Cl)cc2Cl)c(-c2ccc(Cl)cc2Cl)n1` [Compound 91], the inhibition at 10 µM is reported as 11.2%.
With `CCCCCCOC(=O)Cn1nc(-c2ccc(Cl)cc2)c(-c2ccc(Cl)cc2Cl)n1` [Compound 114] the inhibition at 10 µM was 39.1%.
`CC(NC(=O)Cn1nc(-c2ccc(Cl)cc2)c(-c2ccc(Cl)cc2Cl)n1)c1ccccc1` (centres unmarked) [Compound 154] showed an inhibition at 10 µM of 95.2%.
In the case of `CCCCCCCCNC(=O)n1nc(-c2ccc(Cl)cc2)c(-c2ccc(Cl)cc2Cl)n1` [Compound 96], the inhibition at 10 µM is reported as 17.7%.
For `Cc1cc(C)cc(NC(=O)n2nc(-c3ccc(Cl)cc3)c(-c3ccc(Cl)cc3)n2)c1` [Compound 71], the inhibition at 10 µM was 3.6%.
With `O=C(c1ccccc1Cl)n1nc(-c2ccccc2)c(-c2ccccc2)n1` [Compound 67] the inhibition at 10 µM was 13.1%.
In the case of `O=C(Cn1nc(-c2ccc(Cl)cc2)c(-c2ccc(Cl)cc2)n1)N1CCCCC1` [Compound 130], the inhibition at 10 µM is reported as 48.6%.
`CCCCCNC(=O)n1nc(-c2ccc(Cl)cc2)c(-c2ccc(Cl)cc2)n1` [Compound 86] showed an inhibition at 10 µM of 8.4%.
`CC1CCC(NC(=O)Cn2nc(-c3ccc(Cl)cc3)c(-c3ccc(Cl)cc3Cl)n2)CC1` (centres unmarked) [Compound 167] showed an inhibition at 10 µM of 92.1%.
With `COc1ccc(NC(=O)n2nc(-c3ccc(Cl)cc3Cl)c(-c3ccc(Cl)cc3Cl)n2)cc1` [Compound 78] the inhibition at 10 µM was 6.4%.
Compound `O=C(NC1CCCCC1)n1nc(-c2ccc(Cl)cc2)c(-c2ccc(Cl)cc2Cl)n1` [Compound 93] has an inhibition at 10 µM of 30.5%.
With `O=C(Cn1nc(-c2ccc(Cl)cc2Cl)c(-c2ccc(Cl)cc2Cl)n1)N[C@H]1c2ccccc2C[C@H]1OC(=O)Cn1nc(-c2ccc(Cl)cc2Cl)c(-c2ccc(Cl)cc2Cl)n1` [Compound 128] the inhibition at 10 µM was 13.6%.
`O=C(NCc1ccccc1)n1nc(-c2ccc(Cl)cc2Cl)c(-c2ccc(Cl)cc2Cl)n1` [Compound 73] showed an inhibition at 10 µM of 23.8%.
`O=C(Cn1nc(-c2ccccc2)c(-c2ccccc2)n1)NC1CCCCC1` [Compound 123] was tested, and the inhibition at 10 µM was 11.6%.
For `CC(C)(C)C(=O)n1nc(-c2ccccc2)c(-c2ccccc2)n1` [Compound 66], the inhibition at 10 µM was 32.1%.
Compound `CCCCCCCC(=O)n1nc(-c2ccc(Cl)cc2)c(-c2ccc(Cl)cc2)n1` [Compound 84] has an inhibition at 10 µM of 21.2%.
Work on `O=C(Cn1nc(-c2ccc(Cl)cc2Cl)c(-c2ccc(Cl)cc2Cl)n1)N[C@@H](CO)[C@H](O)c1ccc([N+](=O)[O-])cc1` [Compound 135] yielded an inhibition at 10 µM of 60.1%.
`COC[C@H](NC(=O)Cn1nc(-c2ccc(Cl)cc2Cl)c(-c2ccc(Cl)cc2Cl)n1)[C@@H](O)c1ccccc1` [Compound 134] was tested, and the inhibition at 10 µM was 95.9%.

Same assay, conditions: Table 2; percent inhibition at 10 μM; 10 µM
In the case of `CCCCCCNC(=O)n1nc(-c2ccc(Cl)cc2Cl)c(-c2ccc(Cl)cc2Cl)n1` [Compound 99], the “CB1 Inhibition (%) (10 μM)” value is reported as 6.60%.
With `O=C(NC1CCCCC1)n1nc(-c2ccc(Cl)cc2)c(-c2ccc(Cl)cc2)n1` [Compound 100] the “CB1 Inhibition (%) (10 μM)” value was 19.90%.

Same assay, conditions: displacement of specific [3H]-CP55940 binding in HEK 293 cells stably transfected with human CB1 receptor
`CC(C)[C@H](NC(=O)Cn1nc(-c2ccc(Cl)cc2)c(-c2ccc(Cl)cc2Cl)n1)C(O)(c1ccccc1)c1ccccc1` [Compound 144] gave an IC50 of 140 ± 63.1 nM.
With `O=C(Cn1nc(-c2ccc(Cl)cc2Cl)c(-c2ccc(Cl)cc2Cl)n1)N[C@H](CO)Cc1ccccc1` [Compound 132] the IC50 was 295 ± 112 nM.
`COc1ccc(CNC(=O)Cn2nc(-c3ccc(Cl)cc3)c(-c3ccc(Cl)cc3Cl)n2)cc1OC` [Compound 164] gave an IC50 of 2830 ± 378 nM.
For `C[C@H](NC(=O)Cn1nc(-c2ccc(Cl)cc2Cl)c(-c2ccc(Cl)cc2Cl)n1)C(O)(c1ccccc1)c1ccccc1` [Compound 133], the IC50 was 760 ± 273 nM.
`O=C(Cn1nc(-c2ccc(Cl)cc2)c(-c2ccc(Cl)cc2Cl)n1)N1CCCCC1` [Compound 129] showed an IC50 of 587 ± 139 nM.
Work on `CC(NC(=O)Cn1nc(-c2ccc(Cl)cc2)c(-c2ccc(Cl)cc2Cl)n1)c1ccccc1` (centres unmarked) [Compound 154] yielded an IC50 of 772 ± 446 nM.
`O=C(Cn1nc(-c2ccc(Cl)cc2Cl)c(-c2ccc(Cl)cc2Cl)n1)NCc1ccccc1F` [Compound 173] showed an IC50 of 19.3 ± 3.5 nM.
`COC[C@H](NC(=O)Cn1nc(-c2ccc(Cl)cc2Cl)c(-c2ccc(Cl)cc2Cl)n1)[C@@H](O)c1ccccc1` [Compound 134] showed an IC50 of 806 ± 346 nM.
